Measurements: patent US12516038B2, “Inhibitors of antigen presentation by HLA-DR” (Janssen Pharmaceutica NV, priority 2020, dated 2026)

Key:
[1] = system: HLA-DR4 restricted mouse T cell hybridoma line (DR4.CII.36.8) with HLA-DRB1*04:01-expressing Boleth cells; assay: HLA-DR4-restricted peptide-specific T cell-based assay (hybridoma assay); details: 6 h, inhibition of IL-2 production, CII259-273 peptide presented by Boleth cells
Outline: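 IC50 values derive from 4-parameter logistic fits of IL-2 AlphaLISA signal over 8-point duplicate titrations. Compound and HLA-DRB1*04:01 Boleth APCs were preincubated 1 h, 37° C., before adding CII259-273-restricted DR4.CII.36.8 hybridoma cells with peptide for 6 h at 37° C., in DMEM/1% FCS.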

HLA-DRB1*0401 = HLA-DRB1*0401 (Homo sapiens (Human), UniProt P01903+P01911, A100K/A169T/DEL228-266/F76Y/I96L/K127E/L162R/M171V/N62H/P40V/Q125Y/R42H/S133A/S149N/S66Y/V115G/V209L/W38E); assay: HLA-DR4 HTRF assay; format: binding; details: inhibition of loading of Alexa Fluor 647-labeled Cit-CII peptide onto HLA-DR4 (CLIP cleaved)
Outline: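 HLA-DRB1*04:01 construct (α/β fused to human Fc, CLIP pre-cleaved by HRV3C overnight at 4° C) at 3 nM was preincubated 45 min with compound and 1 nM anti-Fc-Tb donor, then 40 nM Alexa647-Cit-CII1236-1249 peptide added. After 90 min at 37° C, the 665/620 nm HTRF ratio gave % inhibition; IC50 by nonlinear regression.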

[2] = system: human peripheral blood CD4+ helper T cells; assay: Pan-CD4+ T cell activation (off-target assay); format: cell-based; details: anti-CD3/anti-CD28 stimulation, IL-2 production by ELISA
Outline: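 IL-2 secretion was measured by ELISA of culture supernatant after 24 h of TCR stimulation. Stimulation used anti-CD3 coated at 1 μg/mL and 1 μg/mL soluble anti-CD28 on human blood CD4+ helper T cells without HLA-DR-expressing APCs, with compound or vehicle present.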

SMILES	IC50 ([1]; Mus musculus, T-cell)	IC50 (HLA-DRB1*0401)	IC50 ([2]; Homo sapiens, T-cell, 24 h)	IC50 [1]	IC50 ([2]; 24 hrs)
CC1(C)COc2cc(O[C@@H](c3ccncc3)c3ccc(C(N)=O)cc3)ccc2C1=O (single isomer, unassigned) [Example 56a, (*R)-4-(((3,3-dimethyl-4-oxochroman-7-yl)oxy)(pyridin-4-yl)methyl)benzamide]	1700 nM	1400 nM	4600 nM		
CC1(C)COc2cc(O[C@H](c3ccncc3)c3ccc(C(N)=O)cc3)ccc2C1=O (single isomer, unassigned) [Example 56b, (*S)-4-(((3,3-dimethyl-4-oxochroman-7-yl)oxy)(pyridin-4-yl)methyl)benzamide]	6000 nM	1300 nM	> 15000 nM		
Cc1c(O[C@@H](c2ccc(Cl)cc2)c2ccc(C(N)=O)cc2)ccc2c1OCCC2=O (single isomer, unassigned) [Example 57a, (*R)-4-((4-chlorophenyl)((8-methyl-4-oxochroman-7-yl)oxy)methyl)benzamide]	4800 nM	2300 nM	> 15000 nM		
Cc1c(O[C@@H](c2ccncc2)c2ccc(C(N)=O)cc2)c(F)cc2c1OCCC2=O (single isomer, unassigned) [Example 58a, (*R)-4-(((6-fluoro-8-methyl-4-oxochroman-7-yl)oxy)(pyridin-4-yl)methyl)benzamide]	180 nM	330 nM	5300 nM		
Cc1c(O[C@H](c2ccncc2)c2ccc(C(N)=O)cc2)c(F)cc2c1OCCC2=O (single isomer, unassigned) [Example 58b, (*S)-4-(((6-fluoro-8-methyl-4-oxochroman-7-yl)oxy)(pyridin-4-yl)methyl)benzamide]	2600 nM	730 nM	9900 nM		
Cc1c(O[C@H](c2ccc(C#N)cc2)c2ccc(C(N)=O)cc2)ccc2c1OCCC2=O (single isomer, unassigned) [Example 59a, (*R)-4-((4-cyanophenyl)((8-methyl-4-oxochroman-7-yl)oxy)methyl)benzamide]	3200 nM	1200 nM	4700 nM		
Cc1c(O[C@H](c2ccc(C(N)=O)cc2)c2cccc(C#N)c2)ccc2c1OCCC2=O (single isomer, unassigned) [Example 60a, (*R)-4-((3-cyanophenyl)((8-methyl-4-oxochroman-7-yl)oxy)methyl)benzamide]	740 nM	1800 nM	4700 nM		
Cc1c(O[C@@H](c2ccc(C(N)=O)cc2)c2cccc(C#N)c2)ccc2c1OCCC2=O (single isomer, unassigned) [Example 60b, (*S)-4-((3-cyanophenyl)((8-methyl-4-oxochroman-7-yl)oxy)methyl)benzamide]	2300 nM	2000 nM	9900 nM		
Cc1c(O[C@H](c2ccc(C(N)=O)cc2)c2ccccc2C#N)ccc2c1OCCC2=O (single isomer, unassigned) [Example 61a, (*R)-4-((2-cyanophenyl)((8-methyl-4-oxochroman-7-yl)oxy)methyl)benzamide]	4600 nM	990 nM	2700 nM		
Cc1c(O[C@@H](c2ccc(C(N)=O)cc2)c2ccccc2C#N)ccc2c1OCCC2=O (single isomer, unassigned) [Example 61b, (*S)-4-((2-cyanophenyl)((8-methyl-4-oxochroman-7-yl)oxy)methyl)benzamide]	5200 nM	960 nM	> 15000 nM		
Cc1c(O[C@H](c2ccc(C(N)=O)cc2)c2ccc(Cl)cn2)ccc2c1OCCC2=O (single isomer, unassigned) [Example 62a, (*R)-4-((5-chloropyridin-2-yl)((8-methyl-4-oxochroman-7-yl)oxy)methyl)benzamide]	8500 nM	1500 nM	4700 nM		
Cc1c(O[C@@H](c2ccc(C(N)=O)cc2)c2ccc(Cl)cn2)ccc2c1OCCC2=O (single isomer, unassigned) [Example 62b, (*S)-4-((5-chloropyridin-2-yl)((8-methyl-4-oxochroman-7-yl)oxy)methyl)benzamide]	1800 nM	1400 nM	2700 nM		
Cc1c(O[C@@H](c2ccc(Cl)cc2)c2ccc(C(N)=O)cn2)ccc2c1OCCC2=O (single isomer, unassigned) [Example 63b, (*S)-6-((4-chlorophenyl)((8-methyl-4-oxochroman-7-yl)oxy)methyl)nicotinamide]	1300 nM	1500 nM	4700 nM		
Cc1c(O[C@H](c2ccc(Cl)cc2)c2ccc(C(N)=O)nc2)ccc2c1OCCC2=O (single isomer, unassigned) [Example 64a, (*R)-5-((4-chlorophenyl)((8-methyl-4-oxochroman-7-yl)oxy)methyl)picolinamide]	6000 nM	1700 nM	2000 nM		
Cc1c(O[C@@H](c2ccc(Cl)cc2)c2ccc(C(N)=O)nc2)ccc2c1OCCC2=O (single isomer, unassigned) [Example 64b, (*S)-5-((4-chlorophenyl)((8-methyl-4-oxochroman-7-yl)oxy)methyl)picolinamide]	4800 nM	1800 nM	> 15000 nM		
Cc1c(O[C@@H](c2ccc(C(N)=O)cc2)c2cccc[n+]2[O-])ccc2c1OCCC2=O (single isomer, unassigned) [Example 65b, (*S)-2-((4-carbamoylphenyl)((8-methyl-4-oxochroman-7-yl)oxy)methyl)pyridine 1-oxide]		28000 nM		2000 nM	15000 nM
Cc1c(O[C@@H](c2ccc(F)cc2)c2ccc(C(N)=O)cc2)ccc2c1OCCC2=O (single isomer, unassigned) [Example 66a, (*R)-4-((4-Fluorophenyl)((8-methyl-4-oxochroman-7-yl)oxy)methyl)benzamide]	7800 nM	2700 nM	4700 nM		
Cc1c(O[C@H](c2ccc(C(N)=O)cc2)c2cccc(F)c2)ccc2c1OCCC2=O (single isomer, unassigned) [Example 67a, (*R)-4-((3-Fluorophenyl)((8-methyl-4-oxochroman-7-yl)oxy)methyl)benzamide]	2700 nM	3100 nM	15000 nM		
Cc1c(O[C@H](c2ccc(C(N)=O)cc2)c2ccccc2F)ccc2c1OCCC2=O (single isomer, unassigned) [Example 68a, (*R)-4-((2-Fluorophenyl)((8-methyl-4-oxochroman-7-yl)oxy)methyl)benzamide]	5600 nM	1500 nM	4700 nM		
Cc1c(O[C@H](c2ccccc2)c2ccc(C(N)=O)cc2)ccc2c1OCCC2=O (single isomer, unassigned) [Example 69a, (*R)-4-(((8-Methyl-4-oxochroman-7-yl)oxy)(phenyl)methyl)benzamide]	2200 nM	2100 nM	6100 nM		
Cc1c(O[C@H](c2ccccc2)c2ccc(C(=O)O)cc2)ccc2c1OCCC2=O (single isomer, unassigned) [Example 70a, (*R)-4-(((8-methyl-4-oxochroman-7-yl)oxy)(phenyl)methyl)benzoic acid]	7100 nM	1300 nM	4700 nM		
Cc1c(O[C@@H](c2ccccc2)c2ccc(C(=O)O)cc2)ccc2c1OCCC2=O (single isomer, unassigned) [Example 70b, (*S)-4-(((8-methyl-4-oxochroman-7-yl)oxy)(phenyl)methyl)benzoic acid]	4800 nM	1500 nM	9900 nM		
